Six compounds from PMC2825274 (PLoS ONE, 2010) can be followed below.

For data set [1], the system named is 2009 H1N1 influenza strains A/California/04/09 (CA04), A/California/05/09 (CA05) and A/California/10/09 (CA10). In words: microbe, parasite or virus in culture. The data set is classed as cell-based, influenza A virus. Conditions: for EC50: Influenza A virus, H1N1, MDCK.
Data set [2] relates to A/New Caledonia/20/99 (H1N1) (NC20) susceptible. In words: microbe, parasite or virus in culture. In kind it is cell-based, influenza A virus.
Data set [3] has as its system influenza A/California/04/09 (H1N1) (CA04). In words: microbe, parasite or virus in culture. The data set is classed as cell-based, influenza A virus. As to conditions: for EC50: Influenza A virus, H1N1, MDCK, 72 h.
The test system of data set [4] is influenza A/California/05/09 (H1N1) (CA05). Put plainly: microbe, parasite or virus in culture. The data set is classed as cell-based, influenza A virus. As to conditions: for EC50: Influenza A virus, H1N1, MDCK, 72 h.
For data set [5], the system named is MDCK cells.

In brackets after ≈: the same amount, converted by molar mass. Several values for one entry are separate records, joined by “and”; a condition that tells them apart may be missing. Equal values may be shown once. Entries after “also recorded” stand apart in the source; their conditions may differ. Read-outs that look alike come from different tables or passages of the source.

Take Oseltamivir carboxylate: the “inhibition of virus-induced CPE as single agent” value (from here on “inhibition of virus-induced CPE”) in data set [1] is “concentration-dependent inhibition of cytopathic effect”. The compound also had an EC50 in data set [2] of 0.20 µg/mL.
On to `CC(=O)N[C@H]1[C@H]([C@H](O)[C@H](O)CO)OC(C(=O)O)=C[C@@H]1N=C(N)N` [Zanamivir], for which the EC50 was 350 nM and 0.12 µg/mL in data set [3]; 230 nM and 0.078 µg/mL in data set [4]. Besides, in data set [1], the “inhibition of virus-induced CPE” value was “concentration-dependent inhibition of cytopathic effect”. Further, the TC50 in data set [5] (dog) is on record as over 100 µg/mL.
As to `NC12CC3CC(CC(C3)C1)C2` [Amantadine], in data set [3], the “amantadine concentration with significant contribution to the synergy of the TCAD regimen” value worked out at 3.2 µg/mL; the “contribution to the total synergy of the TCAD regimen” value came out at 39%; the EC50 is 85 µM and 16 µg/mL. In data set [4], the “amantadine concentration with significant contribution to the synergy of the TCAD regimen” value was at least 0.1 µg/mL; the “contribution to the total synergy of the TCAD regimen” value turned out to be 24%; the EC50 is 106 µM and 20 µg/mL. Also, in data set [1], the “antiviral activity as a single agent” value is “no significant antiviral activity”; the “fold reduction in susceptibility” value is over 250 fold; the “fold reduction of single-agent activity” value worked out at 100 fold; the EC50 is 16 µg/mL to 20 µg/mL and 85 µM to 106 µM. It took 0.22 µg/mL (≈ 1.45 µM) to reach a half-maximal effect in data set [2] (Influenza A virus, H1N1, MDCK) (EC50).
Regarding `NC(=O)c1ncn([C@@H]2O[C@H](CO)[C@@H](O)[C@H]2O)n1` [Ribavirin], the EC50 is 28 µM and 7 µg/mL in data set [3]; 23 µM and 5.6 µg/mL in data set [4]; 3.1 µg/mL (≈ 12.7 µM) in data set [2] (Influenza A virus, H1N1, MDCK). In addition, the “inhibition of virus-induced CPE” value in data set [1] is “concentration-dependent inhibition of cytopathic effect”.
Consider `CC(N)C12CC3CC(CC(C3)C1)C2` (stereo not drawn) [Rimantadine, rimantadine], for which the EC50 was > 51 µM and > 11 µg/mL in data set [3]; > 55 µM and > 12 µg/mL in data set [4]; > 12 µg/mL and > 55 µM in data set [1]. Also, the “inhibition of virus-induced CPE” value in data set [1] is “did not produce inhibition; also recorded: no activity”.
Take `CCC(CC)[C@H](NC(C)=O)[C@@H]1[C@H](O)[C@@H](C(=O)O)C[C@H]1N=C(N)N` [Peramivir]: the “inhibition of virus-induced CPE” value in data set [1] was “concentration-dependent inhibition of cytopathic effect”. In data set [5], this compound displayed a TC50 of over 100 µg/mL.

The EC50 is the concentration that produces a half-maximal response.
